Source: PubChem BioAssay (NCI)
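Results reflect a 48-hour exposure of cells in 96-well plates to compound at five concentrations. At the GI50, growth is halved. The concentration for full growth arrest is given as TGI.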

How the values were obtained:
Test in all cases: NCI-60 cell line screen, 48 h
SK-MEL-5 melanoma = tested on: SK-MEL-5 melanoma
UACC-257 melanoma = tested on: UACC-257 melanoma
NCI-H460 lung = tested on: NCI-H460 lung
NCI-H522 lung = tested on: NCI-H522 lung
COLO 205 colon = tested on: COLO 205 colon
HOP-92 NSCLC = tested on: HOP-92 NSCLC
LOX IMVI melanoma = tested on: LOX IMVI melanoma
HCT-15 colon = tested on: HCT-15 colon

SMILES	TGI (SK-MEL-5 melanoma) [µM]	TGI (UACC-257 melanoma) [µM]	TGI (NCI-H460 lung) [µM]	TGI (NCI-H522 lung) [µM]	TGI (COLO 205 colon) [µM]	TGI (HOP-92 NSCLC) [µM]	TGI (LOX IMVI melanoma) [µM]	TGI (HCT-15 colon) [µM]	GI50 (LOX IMVI melanoma) [µM]	GI50 (UACC-257 melanoma) [µM]	GI50 (NCI-H460 lung) [µM]	GI50 (COLO 205 colon) [µM]	GI50 (HOP-92 NSCLC) [µM]	GI50 (SK-MEL-5 melanoma) [µM]	GI50 (HCT-15 colon) [µM]	GI50 (NCI-H522 lung) [µM]
c1ccc(NC[Si]23OCCN(CCO2)CCO3)cc1	> 100	> 100	> 100	> 100	> 100	> 100										
C/C(=N/O)c1ccc2c(c1)C(=NO)c1cc(/C(C)=N/O)ccc1-2	28.5	5.87	31.8	53.3	38.5	47.4	26.7	36.3								
C=CC1=CC(C)C[C@]1(O)C(=O)OC (some centres undefined)	> 100			> 100				> 100	> 100	> 100	> 100	> 100	> 100			
CC(=O)OCCC(O[Si](c1ccccc1)(c1ccccc1)C(C)(C)C)C(C)(C)O (centres undefined)	> 100	> 100	> 100	46.8	30.3	65.1	57.8	> 100								
CC(=O)[CH-]C(=O)c1ccccc1.CC(=O)[CH-]C(=O)c1ccccc1.[CH2-]CCC.[CH2-]CCC.[Sn+4]	1.97	1.69	4.62	0.327	2.47		2.47	2.87	1.06	0.343	2.11	0.984		0.625	1.29	0.157
C[C@@]12CCCC(=O)N1[C@@H](CO)C(c1ccccc1)O2 (some centres undefined)	> 100	> 100	> 100		> 100	> 100	> 100	> 100								
Cc1cc([N+](=O)[O-])c(S(=O)(=O)c2ccccc2)c([N+](=O)[O-])c1	27.8	5.16	28.2	3.14	24	5.28	6.51	35.3								
CC1(C)OC(COCCOCCCCCO)C(COCCOCCCCCO)O1 (centres undefined)	> 100	> 100	> 100	> 100	> 100		> 100	> 100								
Cc1ccccc1NC(=O)C(=O)CC(=O)c1ccc([N+](=O)[O-])cc1		> 100	> 100		> 100	> 100	> 100	> 100								
COC(=O)c1cc2c3c(ccc2[nH]1)N(C(=O)c1cc2c4c(ccc2[nH]1)N(C(=O)c1cc2c5c(ccc2[nH]1)N(C(N)=O)CC5)CC4)CC3	8.68	> 100	> 100		> 36	7.31	> 34	> 100								
NC(=O)c1c[se]c(C2OC(COP(=O)(O)CP(=O)(O)OCC3OC(n4cnc5c(N)ncnc54)C(O)C3O)C(O)C2O)n1 (centres undefined)	> 100	> 100	> 100	> 100	> 100	> 100										
CC(C)(C)c1cc(CCC(=O)Nc2ccc(Cl)cc2Cl)nc(N)n1	> 100	> 100	> 100		> 100	> 100	> 100	> 100								
CCOC(=O)C[C@@]12CCCNC1(C)CCc1ccccc12 (some centres undefined)	> 100	> 100	> 100		> 100		> 100	> 100								
COc1ccc(CC2=NCCc3cc(OC)c(OC)cc32)cc1Br	25.3	82.6	> 100	86.6	37.4	33.7	30.3									
COc1nc2c(c(O)c(C)c(=O)n2OC2OC(COC(C)=O)C(OC(C)=O)C(OC(C)=O)C2OC(C)=O)c(=O)n1C (centres undefined)	> 100		> 100	> 100	> 100		> 100	> 100								
O=C1C(c2ccccc2)=C(c2ccccc2)[C@H](c2ccccc2)[C@]1(Cc1nnn(-c2ccc([N+](=O)[O-])cc2)c1N1CCOCC1)c1ccccc1	> 37.5	> 37.5	> 37.5		> 37.5	2.25	> 37.5	> 37.5								
CC[P+]1(CC)CCCC1	> 100	> 100	> 100		> 100		> 100	> 100								
O=[N+]([O-])C1C2C=CC(C2)[C@H]1c1ccc(Cl)cc1Cl (some centres undefined)	24.7	99	> 100			> 100	> 100	> 100								
COc1cc2cccc(N=Cc3c(Br)ccc(OC)c3OC(C)C)c2cc1OC	> 100	> 100	> 100	> 100	> 100											
C[N+](C)=c1nc(N2CCOCC2)ss1	> 100	> 100	> 100	> 100		> 100	> 100	> 100								
Cc1nnc(N=Nc2c(O)[nH]c3ccccc23)n1N	> 100	> 100	> 100	> 100	> 100		> 100	> 100								
